The molecules below were run against Neuraminidase (Influenza A virus, UniProt B4URF0).
Type: cell-based, Influenza A virus (A/WSN/1933(H1N1)), HEK293

Neuraminidase, sequence (B4URF0 whole entry): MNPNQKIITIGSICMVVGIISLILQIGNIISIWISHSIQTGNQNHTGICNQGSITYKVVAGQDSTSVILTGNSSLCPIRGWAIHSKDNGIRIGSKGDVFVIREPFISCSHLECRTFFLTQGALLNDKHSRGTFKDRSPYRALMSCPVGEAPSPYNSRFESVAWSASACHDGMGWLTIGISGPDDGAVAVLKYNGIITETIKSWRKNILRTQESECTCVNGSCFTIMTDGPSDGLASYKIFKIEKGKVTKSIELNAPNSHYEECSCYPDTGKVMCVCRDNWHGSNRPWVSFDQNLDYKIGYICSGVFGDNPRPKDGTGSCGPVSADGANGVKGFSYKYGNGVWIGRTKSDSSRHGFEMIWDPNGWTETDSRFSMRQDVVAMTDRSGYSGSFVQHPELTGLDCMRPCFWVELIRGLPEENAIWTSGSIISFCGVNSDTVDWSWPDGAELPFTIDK

SMILES	IC50
CCC(CC)[C@H](NC(C)=O)[C@@H]1C[C@@H](P(=O)(O)O)C[C@H]1NC(=N)N	2.9 nM
CCCCCCOP(=O)(O)[C@@H]1C[C@@H]([C@@H](NC(C)=O)C(CC)CC)[C@H](NC(=N)N)C1	1.6 nM
CCOP(=O)(O)[C@@H]1C[C@@H]([C@@H](NC(C)=O)C(CC)CC)[C@H](NC(=N)N)C1	1 nM
CCOP(=O)(O)[C@H]1C[C@@H](NC(=N)N)[C@H]([C@@H](NC(C)=O)C(CC)CC)[C@@H]1O	0.9 nM
CCCCCCOP(=O)(O)[C@H]1C[C@@H](NC(=N)N)[C@H]([C@@H](NC(C)=O)C(CC)CC)[C@@H]1O	0.5 nM
CCCCCCOP(=O)(O)C1=C[C@@H]([C@@H](NC(C)=O)C(CC)CC)[C@H](NC(=N)N)C1	1.5 nM

Source: ChEMBL document CHEMBL3817747 (J Med Chem, 2016)
